# The supplement of paper PMC11061612
# Assays:
# Assay in all cases: combination Emax (second highest fraction inhibited in the dose matrix, 72 h); higher = more inhibition; extreme values may be limits of the assay
# [1] = system: TE-8 (Esophageal Squamous Cell Carcinoma)
# Method in brief: (§1)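 Cell lines in DMEM/F12 or RPMI with 10% FBS were plated in 1536-well plates, held 24 hours at 37°C, 5% CO2, then given two-drug dose matrices for 72 hours (DMSO typically 0.2%). Viability was read by CellTiter-Glo 2.0 luminescence and scaled as inhibition from 0 (vehicle wells) to 1 (blank wells). Combination Emax is the second-highest inhibition in the matrix; Bliss excess is observed combination effect minus expected EA + EB − EA·EB, EA and EB being single-agent effects.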
# [2] = system: RKN (Other Solid Carcinomas)
# Method in brief: as §1
# [3] = system: OPM-2 (Plasma Cell Myeloma)
# Method in brief: as §1
# [4] = system: FADU (Head and Neck Carcinoma)
# Method in brief: as §1
# [5] = system: NCI-H23 (Lung Adenocarcinoma)
# Method in brief: as §1
# [6] = system: SK-PN-DW (Other Solid Carcinomas)
# Method in brief: as §1
# [7] = system: OAW-42 (Ovarian Carcinoma)
# Method in brief: as §1
# [8] = system: 23132-87 (Gastric Carcinoma)
# Method in brief: as §1
# SF539 (Glioblastoma) = system: SF539 (Glioblastoma)
# Method in brief: as §1
# [9] = system: LK-2 (Squamous Cell Lung Carcinoma)
# Method in brief: as §1
# GB-1 (Glioblastoma) = system: GB-1 (Glioblastoma)
# Method in brief: as §1
# [10] = system: LXF-289 (Lung Adenocarcinoma)
# Method in brief: as §1
# [11] = system: HCT-15 (Colorectal Carcinoma)
# Method in brief: as §1
# WM278 (Melanoma) = system: WM278 (Melanoma)
# Method in brief: as §1
# [12] = system: HEC-1 (Endometrial Carcinoma)
# Method in brief: as §1
# IST-MES1 (Mesothelioma) = system: IST-MES1 (Mesothelioma)
# Method in brief: as §1
# [13] = system: L-1236 (Hodgkin's Lymphoma)
# Method in brief: as §1
# [14] = system: SU-DHL-10 (B-Cell Non-Hodgkin's Lymphoma)
# Method in brief: as §1
# LN-229 (Glioblastoma) = system: LN-229 (Glioblastoma)
# Method in brief: as §1
# [15] = system: SHP-77 (Small Cell Lung Carcinoma)
# Method in brief: as §1
SMILES,combination Emax [1],combination Emax [2],combination Emax [3],combination Emax [4],combination Emax [5],combination Emax [6],combination Emax [7],combination Emax [8],combination Emax (SF539 (Glioblastoma)),combination Emax [9],combination Emax (GB-1 (Glioblastoma)),combination Emax [10],combination Emax [11],combination Emax (WM278 (Melanoma)),combination Emax [12],combination Emax (IST-MES1 (Mesothelioma)),combination Emax [13],combination Emax [14],combination Emax (LN-229 (Glioblastoma)),combination Emax [15]
"CC1(C)CCC(CN2CCN(c3ccc(C(=O)NS(=O)(=O)c4ccc(NCC5CCOCC5)c([N+](=O)[O-])c4)c(Oc4cnc5[nH]ccc5c4)c3)CC2)=C(c2ccc(Cl)cc2)C1 [Venetoclax] + C=CCn1c(=O)c2cnc(Nc3ccc(N4CCN(C)CC4)cc3)nc2n1-c1cccc(C(C)(C)O)n1 [AZD1775] (first compound max 1 µM, partner max 1 µM)",0.883,0.176,0.971,0.491,0.855,0.955,0.436,0.36,0.972,0.932,0.296,0.575,0.47,0.436,0.182,0.254,0.865,0.967,0.292,0.733
"CN(CCO)CC[C@H](CSc1ccccc1)Nc1ccc(S(=O)(=O)NC(=O)c2ccc(N3CCC([C@@H](O)c4ccccc4-c4ccc(Cl)cc4)CC3)cc2)cc1S(=O)(=O)C(F)(F)F [AZD4320] + CN(C)CCCOc1ccc(-c2ccc3ncc4c(c3c2)n(C2CCOCC2)c(=O)n4C)cn1 [AZD0156] (first compound max 1 µM, 7x7, partner max 1 µM)",0.181,0.102,0.687,0.124,0.104,0.326,0.261,0.148,0.27,0.712,0.0923,0.182,0.111,0.568,0.372,0.104,0.992,0.144,0.142,0.585
"Cc1c2c(nn1C)CSCc1cc(n(C)n1)CSc1cc(c3ccccc3c1)OCCCc1c(C(=O)O)n(C)c3c-2c(Cl)ccc13 [AZD5991] + CC1(C)CCC(CN2CCN(c3ccc(C(=O)NS(=O)(=O)c4ccc(NCC5CCOCC5)c([N+](=O)[O-])c4)c(Oc4cnc5[nH]ccc5c4)c3)CC2)=C(c2ccc(Cl)cc2)C1 [Venetoclax] (first compound max 1 µM, 7x7, partner max 1 µM)",0.403,0.146,1,0.946,0.899,0.929,0.37,0.903,0.544,0.302,0.133,0.296,0.182,0.291,0.173,0.116,0.764,1,0.503,0.753
"CC1(C)CCC(CN2CCN(c3ccc(C(=O)NS(=O)(=O)c4ccc(NCC5CCOCC5)c([N+](=O)[O-])c4)c(Oc4cnc5[nH]ccc5c4)c3)CC2)=C(c2ccc(Cl)cc2)C1 [Venetoclax] + C[C@@H]1COCCN1C2=NC(=NC(=C2)C3(CC3)[S@](=N)(=O)C)C4=C5C=CNC5=NC=C4 [AZD6738] (first compound max 1 µM, 7x7, partner max 10 µM)",0.793,0.226,0.943,0.614,0.822,0.929,0.561,0.433,0.87,0.494,0.424,0.554,0.71,0.623,0.41,0.396,0.847,0.912,0.582,0.697
"Cn1cnc2c(F)c(Nc3ccc(Br)cc3Cl)c(C(=O)NOCCO)cc21 [Selumetinib] + CC(C)n1c(=O)n(C)c2cnc3cc(F)c(-c4ccc(OCCCN5CCCCC5)nc4)cc3c21 [AZD1390] (first compound max 10 µM, 7x7, partner max 0.3 µM)",0.546,0.379,0.192,0.271,0.339,0.139,0.192,0.0937,0.359,0.49,0.0241,0.146,0.155,0.841,0.0424,0.183,0.301,0.0401,0.153,0.15
"CC1(C)CCC(CN2CCN(c3ccc(C(=O)NS(=O)(=O)c4ccc(NCC5CCOCC5)c([N+](=O)[O-])c4)c(Oc4cnc5[nH]ccc5c4)c3)CC2)=C(c2ccc(Cl)cc2)C1 [Venetoclax] + CN(C)CCCOc1ccc(-c2ccc3ncc4c(c3c2)n(C2CCOCC2)c(=O)n4C)cn1 [AZD0156] (first compound max 1 µM, 7x7, partner max 1 µM)",0.519,0.107,0.574,0.196,0.122,0.825,0.204,0.157,0.292,0.321,0.115,0.245,0.226,0.211,0.163,0.0799,0.705,0.137,0.212,0.424
